{
  "source": "patent US20030166706A1",
  "about": "“Method of treating osteoarthritis” (priority 2002, published 2003)",
  "key": {"[1]": {"tested_on": "Monosodium Iodoacetate-induced Osteoarthritis in Rat", "test": "Monosodium iodoacetate-induced osteoarthritis in rat model of cartilage damage (MIA Rat)", "assay_type": "in vivo, male Wistar rats"}, "[2]": {"conditions": "cited from earlier work"}, "[3]": {"conditions": "4 weeks study, subcutaneously via osmotic pumps, 10 mg/kg/day"}, "[4]": {"conditions": "4 weeks study, subcutaneously via osmotic pumps, 30 mg/kg/day"}, "[5]": {"conditions": "4 weeks study, subcutaneously via osmotic pumps, 100 mg/kg/day"}},
  "note": "Entries after “also recorded” stand apart in the source; their conditions may differ. Marks after values point to notes of the source that are not given here.",
  "data": [
    {"smiles": "O=C(O)[C@@H]1C[C@@H]2CCCC[C@@H]2N1", "note": "[[2(S), 3a(S), 7a(S)]-2,3,3a,4,5,6,7,7a-octahydroindol-2-carboxylic acid]", "values": [
      {"measurement": "degree of structural damage to the cartilage", "setting": "[1]; 10 mg/kg PO, BID, 4 weeks post-MIA", "value": "significantly decreased"},
      {"measurement": "degree of structural damage to the cartilage", "setting": "[1]; 30 mg/kg PO, BID, 4 weeks post-MIA", "value": "significantly decreased"},
      {"measurement": "IJFL (Inhibition of Joint Function Limitation) (% +/− SEM)", "setting": "[1]; 2 weeks study, subcutaneously via osmotic pumps, 90 mg/kg/day, p < 0.05 versus vehicle", "value": "85 +/− 3%"},
      {"measurement": "SDCES (Significant Decrease In Cartilage Erosion Severity)", "setting": "[1]; [3]", "value": "No"},
      {"measurement": "SIJWHLE (Significant Increase in Joints Without Hind Limb Erosion)", "setting": "[1]; [3]", "value": "No"},
      {"measurement": "IJFL (Inhibition of Joint Function Limitation) (% +/− SEM)", "setting": "[1]; 4 weeks study, subcutaneously via osmotic pumps, 10 mg/kg/day, Not statistically significant", "value": "28 +/− 14^e %"},
      {"measurement": "SDCES (Significant Decrease In Cartilage Erosion Severity)", "setting": "[1]; [4]", "value": "No"},
      {"measurement": "SIJWHLE (Significant Increase in Joints Without Hind Limb Erosion)", "setting": "[1]; [4]", "value": "No"},
      {"measurement": "IJFL (Inhibition of Joint Function Limitation) (% +/− SEM)", "setting": "[1]; 4 weeks study, subcutaneously via osmotic pumps, 30 mg/kg/day, p < 0.05 versus vehicle", "value": "94 +/− 10%"},
      {"measurement": "SDCES (Significant Decrease In Cartilage Erosion Severity)", "setting": "[1]; [5]", "value": "No"},
      {"measurement": "SIJWHLE (Significant Increase in Joints Without Hind Limb Erosion)", "setting": "[1]; [5]", "value": "No"},
      {"measurement": "IJFL (Inhibition of Joint Function Limitation) (% +/− SEM)", "setting": "[1]; 4 weeks study, subcutaneously via osmotic pumps, 100 mg/kg/day, p < 0.05 versus vehicle", "value": "78 +/− 3%"},
      {"measurement": "inhibiting cartilage damage and treating osteoarthritis, from analysis of proteoglycan loss", "setting": "[1]; MIA Rat data that are expected", "value": "effective"},
      {"measurement": "joint pain", "setting": "[1]; all doses, 3 to 30 mg/kg PO, BID, 4 weeks post-MIA", "value": "significantly decreased joint pain"},
      {"measurement": "preventing or treating cartilage damage", "setting": "[1]; conclusion from MIA Rat data of Tables 1 and 2", "value": "effective"},
      {"measurement": "joint function limitations as defined by a reduction in differential hind-limb weight bearing", "setting": "[1]; dosed orally two times per day", "value": "decrease joint function limitations"},
      {"measurement": "SIJWHLE (Significant Increase in Joints Without Hind Limb Erosion)", "setting": "[1]; four week study, oral, two times per day, 3 mg/kg per dose, Cochran-Armitage Trend test", "value": "No"},
      {"measurement": "SDCES (Significant Decrease In Cartilage Erosion Severity)", "setting": "[1]; four week study, oral, two times per day, 3 mg/kg per dose, Ridit Analysis", "value": "No"},
      {"measurement": "IJFL (Inhibition of Joint Function Limitation) (% +/− SEM)", "setting": "[1]; four week study, oral, two times per day, 3 mg/kg per dose, p < 0.05 versus vehicle", "value": "62 +/− 6%"},
      {"measurement": "SIJWHLE (Significant Increase in Joints Without Hind Limb Erosion)", "setting": "[1]; four week study, oral, two times per day, 10 mg/kg per dose, Cochran-Armitage Trend test, actual p = 0.046", "value": "Yes^f"},
      {"measurement": "SDCES (Significant Decrease In Cartilage Erosion Severity)", "setting": "[1]; four week study, oral, two times per day, 10 mg/kg per dose, Ridit Analysis, 10 mg/kg", "value": "significantly decrease cartilage erosion severity and No"},
      {"measurement": "IJFL (Inhibition of Joint Function Limitation) (% +/− SEM)", "setting": "[1]; four week study, oral, two times per day, 10 mg/kg per dose, p < 0.05 versus vehicle", "value": "70 +/− 9%"},
      {"measurement": "SIJWHLE (Significant Increase in Joints Without Hind Limb Erosion)", "setting": "[1]; four week study, oral, two times per day, 30 mg/kg per dose, Cochran-Armitage Trend test, actual p = 0.020", "value": "Yes^e"},
      {"measurement": "IJFL (Inhibition of Joint Function Limitation) (% +/− SEM)", "setting": "[1]; four week study, oral, two times per day, 30 mg/kg per dose, p < 0.05 versus vehicle", "value": "83 +/− 7%"},
      {"measurement": "SDCES (Significant Decrease In Cartilage Erosion Severity)", "setting": "[1]; four week study, oral, two times per day, 30 mg/kg per dose, p < 0.05 versus vehicle (Ridit Analysis), actual p = 0.021, 30 mg/kg", "value": "significantly decrease cartilage erosion severity; also recorded: Yes^d"}
    ]},
    {"smiles": "Cc1onc(-c2ccccc2)c1-c1ccc(S(N)(=O)=O)cc1", "note": "[valdecoxib, 4-(5-methyl-3-phenyl-4-isoxazolyl)-benzenesulfonamide]", "values": [
      {"measurement": "tolerability", "setting": "[2]; combined analysis of various clinical studies", "value": "well tolerated"},
      {"measurement": "overall upper gastrointestinal safety profile (ulcers, perforations, obstructions and GI bleeds)", "setting": "[2]; versus conventional NSAIDs studied such as ibuprofen, diclofenac and naproxen", "value": "significantly better"}
    ]}
  ]
}
